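Grown in 96-well plates, cells were treated for 48 hours with each compound at five concentrations. Insufficient inhibition: endpoint recorded as highest concentration tested. The concentration for 50% growth inhibition is given as GI50.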 Calls of active or inactive are those of the source. Cut-off read from the data, not from the text of the source: active = GI50 up to about 1.1 µM and inactive = higher.
Assays:
Assay in all cases: NCI anticancer screen, dose series, 48 h
786-0 = tested on: 786-0
A498 = tested on: A498
A549 = tested on: A549
ACHN = tested on: ACHN
CAKI-1 = tested on: CAKI-1
CCRF-CEM = tested on: CCRF-CEM
COLO 205 = tested on: COLO 205
DLD-1 = tested on: DLD-1
DMS-114 = tested on: DMS-114
DMS-273 = tested on: DMS-273
EKVX = tested on: EKVX
HCT-116 = tested on: HCT-116
HCT-15 = tested on: HCT-15
HL-60 = tested on: HL-60
HOP-62 = tested on: HOP-62
HOP-92 = tested on: HOP-92
IGROV-1 = tested on: IGROV-1
K562 = tested on: K562
KM12 = tested on: KM12
LOX IMVI = tested on: LOX IMVI
LXFL 529 = tested on: LXFL 529
M14 = tested on: M14
MOLT-4 = tested on: MOLT-4
Malme-3M = tested on: Malme-3M
NCI-H23 = tested on: NCI-H23
NCI-H460 = tested on: NCI-H460
NCI-H522 = tested on: NCI-H522
OVCAR-3 = tested on: OVCAR-3
OVCAR-4 = tested on: OVCAR-4
OVCAR-5 = tested on: OVCAR-5
OVCAR-8 = tested on: OVCAR-8
RPMI-8226 = tested on: RPMI-8226
RXF 393 = tested on: RXF 393
RXF 631 = tested on: RXF 631
SF-268 = tested on: SF-268
SF-295 = tested on: SF-295
SF-539 = tested on: SF-539
SK-MEL-28 = tested on: SK-MEL-28
SK-MEL-2 = tested on: SK-MEL-2
SK-MEL-5 = tested on: SK-MEL-5
SK-OV-3 = tested on: SK-OV-3
SN12C = tested on: SN12C
SNB-19 = tested on: SNB-19
SNB-75 = tested on: SNB-75
SNB-78 = tested on: SNB-78
SW-620 = tested on: SW-620
TK-10 = tested on: TK-10
U-251 = tested on: U-251
UACC-257 = tested on: UACC-257
UACC-62 = tested on: UACC-62
UO-31 = tested on: UO-31
XF498 = tested on: XF498
HCC 2998 = tested on: HCC 2998
HOP-18 = tested on: HOP-18
HT-29 = tested on: HT-29
KM-20L2 = tested on: KM-20L2
M19-MEL = tested on: M19-MEL
NCI-H226 = tested on: NCI-H226
SR = tested on: SR

SMILES: CCOC(=O)C1C(=O)CC(=O)C2CCCCC21 (configuration not stated)
- GI50 (786-0): > 100 µM (inactive)
- GI50 (A498): > 100 µM (inactive)
- GI50 (A549): > 100 µM (inactive)
- GI50 (ACHN): > 100 µM (inactive)
- GI50 (CAKI-1): > 100 µM (inactive)
- GI50 (CCRF-CEM): > 100 µM (inactive)
- GI50 (COLO 205): > 100 µM (inactive)
- GI50 (DLD-1): > 100 µM (inactive)
- GI50 (DMS-114): > 100 µM (inactive)
- GI50 (DMS-273): > 100 µM (inactive)
- GI50 (EKVX): > 100 µM (inactive)
- GI50 (HCT-116): > 100 µM (inactive)
- GI50 (HCT-15): > 100 µM
- GI50 (HL-60): > 100 µM (inactive)
- GI50 (HOP-62): > 100 µM (inactive)
- GI50 (HOP-92): > 100 µM (inactive)
- GI50 (IGROV-1): > 100 µM (inactive)
- GI50 (K562): > 100 µM (inactive)
- GI50 (KM12): > 100 µM (inactive)
- GI50 (LOX IMVI): > 100 µM (inactive)
- GI50 (LXFL 529): > 100 µM (inactive)
- GI50 (M14): > 100 µM (inactive)
- GI50 (MOLT-4): > 100 µM (inactive)
- GI50 (Malme-3M): > 100 µM (inactive)
- GI50 (NCI-H23): > 100 µM (inactive)
- GI50 (NCI-H460): > 100 µM (inactive)
- GI50 (NCI-H522): > 100 µM (inactive)
- GI50 (OVCAR-3): > 100 µM (inactive)
- GI50 (OVCAR-4): > 100 µM (inactive)
- GI50 (OVCAR-5): > 100 µM (inactive)
- GI50 (OVCAR-8): > 100 µM (inactive)
- GI50 (RPMI-8226): > 100 µM (inactive)
- GI50 (RXF 393): > 100 µM (inactive)
- GI50 (RXF 631): > 100 µM (inactive)
- GI50 (SF-268): > 100 µM (inactive)
- GI50 (SF-295): > 100 µM (inactive)
- GI50 (SF-539): > 100 µM (inactive)
- GI50 (SK-MEL-28): > 100 µM (inactive)
- GI50 (SK-MEL-2): > 100 µM (inactive)
- GI50 (SK-MEL-5): > 100 µM (inactive)
- GI50 (SK-OV-3): > 100 µM (inactive)
- GI50 (SN12C): > 100 µM (inactive)
- GI50 (SNB-19): > 100 µM (inactive)
- GI50 (SNB-75): > 100 µM (inactive)
- GI50 (SNB-78): > 100 µM (inactive)
- GI50 (SW-620): > 100 µM (inactive)
- GI50 (TK-10): > 100 µM (inactive)
- GI50 (U-251): > 100 µM (inactive)
- GI50 (UACC-257): > 100 µM (inactive)
- GI50 (UACC-62): > 100 µM (inactive)
- GI50 (UO-31): > 100 µM (inactive)
- GI50 (XF498): > 100 µM (inactive)

SMILES: CN1CCc2c1nc(-c1ccc([N+](=O)[O-])cc1)c1c2N(C)CC1
- GI50 (786-0): > 100 µM (inactive)
- GI50 (A498): 43.2 µM (inactive)
- GI50 (A549): > 100 µM (inactive)
- GI50 (ACHN): > 100 µM (inactive)
- GI50 (CAKI-1): 26.4 µM (inactive)
- GI50 (CCRF-CEM): > 100 µM (inactive)
- GI50 (COLO 205): 54.6 µM (inactive)
- GI50 (DLD-1): 46.3 µM (inactive)
- GI50 (DMS-114): 32 µM (inactive)
- GI50 (EKVX): > 100 µM (inactive)
- GI50 (HCC 2998): > 100 µM (inactive)
- GI50 (HCT-116): 15.9 µM (inactive)
- GI50 (HCT-15): 99.5 µM
- GI50 (HL-60): 60.1 µM (inactive)
- GI50 (HOP-18): 0.16 µM (active)
- GI50 (HOP-62): 86.7 µM (inactive)
- GI50 (HOP-92): 9.4 µM (inactive)
- GI50 (HT-29): 25.5 µM (inactive)
- GI50 (IGROV-1): > 100 µM (inactive)
- GI50 (K562): 46 µM (inactive)
- GI50 (KM-20L2): > 100 µM (inactive)
- GI50 (KM12): 30.9 µM (inactive)
- GI50 (LOX IMVI): 44.2 µM (inactive)
- GI50 (LXFL 529): > 100 µM (inactive)
- GI50 (M14): 77.6 µM (inactive)
- GI50 (M19-MEL): > 100 µM (inactive)
- GI50 (MOLT-4): 91.2 µM (inactive)
- GI50 (Malme-3M): > 100 µM (inactive)
- GI50 (NCI-H23): > 100 µM (inactive)
- GI50 (NCI-H460): > 100 µM (inactive)
- GI50 (OVCAR-3): 8.15 µM (inactive)
- GI50 (OVCAR-4): > 100 µM (inactive)
- GI50 (OVCAR-5): > 100 µM (inactive)
- GI50 (OVCAR-8): > 100 µM (inactive)
- GI50 (RPMI-8226): 48 µM (inactive)
- GI50 (RXF 393): 35.2 µM (inactive)
- GI50 (RXF 631): > 100 µM (inactive)
- GI50 (SF-268): > 100 µM (inactive)
- GI50 (SF-295): > 100 µM (inactive)
- GI50 (SF-539): > 100 µM (inactive)
- GI50 (SK-MEL-2): > 100 µM (inactive)
- GI50 (SK-MEL-5): 97.3 µM (inactive)
- GI50 (SK-OV-3): > 100 µM (inactive)
- GI50 (SN12C): > 100 µM (inactive)
- GI50 (SNB-19): > 100 µM (inactive)
- GI50 (SNB-75): > 100 µM (inactive)
- GI50 (SNB-78): > 100 µM (inactive)
- GI50 (SW-620): > 100 µM (inactive)
- GI50 (TK-10): > 100 µM (inactive)
- GI50 (U-251): > 100 µM (inactive)
- GI50 (UACC-257): > 100 µM (inactive)
- GI50 (UACC-62): > 100 µM (inactive)
- GI50 (UO-31): 33.1 µM (inactive)
- GI50 (XF498): > 100 µM (inactive)

SMILES: OCc1ccc2[n+](c1)CCC1c3ccccc3NC21 (configuration not stated)
- GI50 (786-0): > 300 µM (inactive)
- GI50 (A549): > 300 µM (inactive)
- GI50 (ACHN): > 300 µM (inactive)
- GI50 (CAKI-1): > 300 µM (inactive)
- GI50 (CCRF-CEM): > 300 µM (inactive)
- GI50 (COLO 205): > 300 µM (inactive)
- GI50 (DLD-1): > 300 µM (inactive)
- GI50 (DMS-114): 186 µM (inactive)
- GI50 (DMS-273): > 300 µM (inactive)
- GI50 (EKVX): > 300 µM (inactive)
- GI50 (HCC 2998): > 300 µM (inactive)
- GI50 (HCT-116): > 300 µM (inactive)
- GI50 (HCT-15): > 300 µM
- GI50 (HL-60): > 300 µM (inactive)
- GI50 (HOP-62): > 300 µM (inactive)
- GI50 (HOP-92): 230 µM (inactive)
- GI50 (HT-29): > 300 µM (inactive)
- GI50 (IGROV-1): > 300 µM (inactive)
- GI50 (K562): > 300 µM (inactive)
- GI50 (KM-20L2): > 300 µM (inactive)
- GI50 (KM12): > 300 µM (inactive)
- GI50 (LOX IMVI): > 300 µM (inactive)
- GI50 (LXFL 529): > 300 µM (inactive)
- GI50 (M19-MEL): 119 µM (inactive)
- GI50 (MOLT-4): > 300 µM (inactive)
- GI50 (Malme-3M): 75.5 µM (inactive)
- GI50 (NCI-H226): > 300 µM (inactive)
- GI50 (NCI-H23): > 300 µM (inactive)
- GI50 (NCI-H460): > 300 µM (inactive)
- GI50 (NCI-H522): > 300 µM (inactive)
- GI50 (OVCAR-3): 240 µM (inactive)
- GI50 (OVCAR-8): > 300 µM (inactive)
- GI50 (RPMI-8226): > 300 µM (inactive)
- GI50 (RXF 393): > 300 µM (inactive)
- GI50 (SF-268): 167 µM (inactive)
- GI50 (SF-295): > 300 µM (inactive)
- GI50 (SF-539): > 300 µM (inactive)
- GI50 (SK-MEL-28): > 300 µM (inactive)
- GI50 (SK-MEL-2): > 300 µM (inactive)
- GI50 (SK-MEL-5): 86.9 µM (inactive)
- GI50 (SK-OV-3): > 300 µM (inactive)
- GI50 (SN12C): > 300 µM (inactive)
- GI50 (SNB-19): > 300 µM (inactive)
- GI50 (SR): > 300 µM (inactive)
- GI50 (SW-620): > 300 µM (inactive)
- GI50 (TK-10): > 300 µM (inactive)
- GI50 (U-251): > 300 µM (inactive)
- GI50 (UACC-257): 283 µM (inactive)
- GI50 (UACC-62): > 300 µM (inactive)
- GI50 (XF498): > 300 µM (inactive)

From ChEMBL document CHEMBL1201862, “PubChem BioAssay data set” (2004)
